Data as given in US20240174690A1, “ANNULATED 2-AMINO-3-CYANO THIOPHENES AND DERIVATIVES FOR THE TREATMENT OF CANCER” (BOEHRINGER INGELHEIM INTERNATIONAL GMBH, priority 2021, published 2024).
Values after ≈ are worked out from the molar mass of the structure shown. Read-outs that look alike come from different tables or passages of the source.

Tests used:
[1] = Plasma protein binding assay (PPB), equilibrium dialysis, 10% FCS in PBS; type: in vitro ADME; settings: for fraction unbound: bovine, read-out: PPB 10% FCS (% fu)
Outline: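 Equilibrium dialysis (5-10 kg/mol cut-off membrane) of 1-10 μmol/L test compound in 10% FCS/PBS against PBS with or without dextran, 3-5 h at 37° C. Compound in each chamber quantified by LC-MS after protein precipitation; fu calculated from Cserum and Cbuffer.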

[2] = Solubility measurement (DMSO solution method), McIlvaine buffer pH 4.5 or 6.8; type: physicochemical; settings: DMSO stock diluted to 250 μM, 24 h shaking at ambient temperature; for solubility at 24 h: aqueous buffer, kinetic from dmso stock
Outline: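 DMSO stock diluted into McIlvaine buffer, pH 4.5 or 6.8, to 250 µM final, shaken 24 h at ambient temperature. Precipitate removed by filtration; filtrate quantified by LC-UV against a fully dissolved reference in acetonitrile/water 1:1.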

[3] = system: SAS cells; assay: SAS CTG proliferation assay (120 h) (HNSCC, wt amplified); type: cell-based
Outline: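 SAS cells plated at 300 per well in DMEM:F12 with 10% FCS and left overnight, then given compounds acoustically. After 120 h exposure, viability read by CellTiter-Glo as percent of DMSO control. IC50 from four-parameter non-linear regression.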

[4] = Metabolic (microsomal) stability assay, human liver microsomes (HLM); type: in vitro ADME; settings: predicted clearance as percent of liver blood flow, 1 μM
Outline: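 LC-MS/MS tracked parent disappearance at 0, 5, 15, 30 and 60 min in NADPH-initiated incubations with 1 mg/mL human microsomal protein and 1 μM compound at 37°C, pH 7.5. First-order fits gave intrinsic clearance, which was scaled up and reported as % QH. NADPH-free controls were also run.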

[5] = Caco-2 assay (permeability PappAB, PappBA, efflux ratio); type: in vitro ADME; settings: human, Caco-2; efflux ratio PappBA/PappAB; 10 μM test compound, pH 7.4; read-out: Caco ER
Outline: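 Confluent Caco-2 monolayers on filter supports, 0.25% BSA in both donor and receiver buffer; transport measured a-b and b-a. After 25-30 min preincubation at 37 °C, samples at 0, 30, 60, 90 min quantified by HPLC/MS/MS. Papp from receiver amount per time, filter area and initial donor concentration; efflux ratio = PappBA/PappAB.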

[6] = McIlvaine buffer pH 4.5, read-out: solubility pH 4.5
[7] = McIlvaine buffer pH 6.8, read-out: solubility pH 6.8

fraction unbound [1]	solubility at 24 h [2, 6]	solubility at 24 h [2, 7]	HLM QH [4]	efflux ratio at 90 min, 10 μM [5]	SMILES	IC50 [3]	PPB 10% FCS (% fu) ([1]; fraction unbound)	solubility pH 4.5 ([2]; McIlvaine buffer pH 4.5)	solubility pH 6.8 ([2]; McIlvaine buffer pH 6.8)
0.06	> 130 µg/mL	42 µg/mL (≈ 65.9 µM)	<24%	–	C[C@H](Oc1cc(-c2ccn(Cc3ncco3)n2)nc(-c2noc3c2CCC[C@@]32CCCc3sc(N)c(C#N)c32)n1)[C@@H]1CCCN1C [II-128]	46 nM	–	–	–
–	82 µg/mL (≈ 148 µM)	8 µg/mL (≈ 14.4 µM)	<24%	–	C[C@H]1CNCCCN1c1cc(-c2ccn(C)n2)nc(-c2noc3c2CCC[C@@]32CCCc3sc(N)c(C#N)c32)n1 [II-140]	128 nM	–	–	–
0.08	1 µg/mL (≈ 1.84 µM)	< 1 µg/mL	38%	–	C[C@H]1CNCCCN1c1nc(-c2onc3c2CCC[C@@]32CCCc3sc(N)c(C#N)c32)cc(C(F)(F)F)n1 [I-15]	–	–	–	–
0.48	48 µg/mL (≈ 78.5 µM)	14 µg/mL (≈ 22.9 µM)	<24%	–	C[C@H](Oc1cc(N2Cc3cnn(C)c3C2)nc(-c2onc3c2CCC[C@@]32CCCc3sc(N)c(C#N)c32)n1)[C@@H]1CCCN1C [I-19]	217 nM	–	–	–
0.06	12 µg/mL (≈ 17.1 µM)	< 1 µg/mL	63%	–	CO[C@H]1CCN(C)[C@@H]1[C@H](C)Oc1cc(-n2ccc(C(=O)N[C@H]3CCOC3)n2)nc(-c2noc3c2CCC[C@@]32CCCc3sc(N)c(C#N)c32)n1 [II-198]	8 nM	–	–	–
0.01	94 µg/mL (≈ 128 µM)	< 1 µg/mL	75%	–	CO[C@H]1CCN(C)[C@@H]1[C@H](C)Oc1cc(-n2ccc(C(=O)N[C@@H](C)c3ccccn3)n2)nc(-c2noc3c2CCC[C@@]32CCCc3sc(N)c(C#N)c32)n1 [II-196]	9 nM	–	–	–
0.07	> 163 µg/mL	9 µg/mL (≈ 12.9 µM)	67%	–	CO[C@H]1CCN(C)[C@@H]1[C@H](C)Oc1cc(-n2ccc(C(=O)N(C)C3COC3)n2)nc(-c2noc3c2CCC[C@@]32CCCc3sc(N)c(C#N)c32)n1 [II-199]	17 nM	–	–	–
0.04	> 159 µg/mL	65 µg/mL (≈ 93.7 µM)	<24%	–	C[C@H](Oc1cc(-n2cc3ccn([C@@H]4CCOC4)c(=O)c3n2)nc(-c2noc3c2CCC[C@@]32CCCc3sc(N)c(C#N)c32)n1)[C@@H]1CCCN1C [II-203]	18 nM	–	–	–
0.81	> 121 µg/mL	> 151 µg/mL	<24%	–	CNC1CCN(c2cc(O[C@@H](C)[C@@H]3CCCN3C)nc(-c3noc4c3CCC[C@@]43CCCc4sc(N)c(C#N)c43)n2)CC1 [II-214]	–	–	–	–
0.04	113 µg/mL (≈ 165 µM)	4 µg/mL (≈ 5.83 µM)	75%	–	CO[C@H]1CCN(C)[C@@H]1[C@H](C)Oc1cc(-n2ccc(CC(=O)NC(C)C)n2)nc(-c2noc3c2CCC[C@@]32CCCc3sc(N)c(C#N)c32)n1 [II-183]	6 nM	–	–	–
0.1	41 µg/mL (≈ 67.5 µM)	< 1 µg/mL	–	0.8	C[C@H](Oc1cc(-n2cncc3ccnc2-3)nc(-c2onc3c2CCC[C@@]32CCCc3sc(N)c(C#N)c32)n1)[C@@H]1CCCN1C [I-14]	25 nM	–	–	–
0.06	–	–	<24%	–	C[C@H](Oc1cc(-n2cc3ccn([C@@H](C)c4ccccn4)c(=O)c3n2)nc(-c2noc3c2CCC[C@@]32CCCc3sc(N)c(C#N)c32)n1)[C@@H]1CCCN1C [II-205]	20 nM	–	–	–
0.46	127 µg/mL (≈ 198 µM)	110 µg/mL (≈ 171 µM)	<24%	–	CC(=O)N1CCN(c2cc(O[C@@H](C)[C@@H]3CCCN3C)nc(-c3noc4c3CCC[C@@]43CCCc4sc(N)c(C#N)c43)n2)CC12CC2 [II-178]	2570 nM	–	–	–
0.24	–	–	56%	–	CO[C@@H]1C[C@@H]([C@H](C)Oc2cc(-c3cnn(C)n3)nc(-c3onc4c3CCC[C@@]43CCCc4sc(N)c(C#N)c43)n2)N(C)C1 [I-17]	241 nM	–	–	–
–	> 124 µg/mL	13 µg/mL (≈ 22.3 µM)	39%	9.6	CC(C)N1CCCN(c2cc(-n3ccnc3)nc(-c3noc4c3CCC[C@@]43CCCc4sc(N)c(C#N)c43)n2)[C@@H](C)C1 [II-169]	4410 nM	–	–	–
0.02	> 147 µg/mL	8 µg/mL (≈ 12.4 µM)	–	–	CCN1CCN(c2cc(O[C@@H](C)[C@@H]3C[C@@H](F)CN3C)nc(-c3noc4c3CCC[C@@]43CCCc4sc(N)c(C#N)c43)n2)CC12CC2 [II-185]	2420 nM	–	–	–
0.1	> 144 µg/mL	17 µg/mL (≈ 27.6 µM)	76%	–	C[C@H](Oc1cc(-n2cc3c(n2)CNC3)nc(-c2noc3c2CCC[C@@]32CCCc3sc(N)c(C#N)c32)n1)[C@@H]1C[C@@H](F)CN1C [II-154]	747 nM	–	–	–
0.09	> 134 µg/mL	< 1 µg/mL	40%	–	[2H]C([2H])([2H])N1C[C@H](F)C[C@H]1[C@H](C)Oc1cc(N2CCN(C([2H])([2H])[2H])C3(CC3)C2)nc(-c2noc3c2CCC[C@@]32CCCc3sc(N)c(C#N)c32)n1 [II-207]	1080 nM	–	–	–
0.03	> 163 µg/mL	4 µg/mL (≈ 5.82 µM)	65%	–	COCCNC(=O)c1ccn(-c2cc(O[C@@H](C)[C@@H]3[C@@H](OC)CCN3C)nc(-c3noc4c3CCC[C@@]43CCCc4sc(N)c(C#N)c43)n2)n1 [II-200]	8 nM	–	–	–
0.04	> 173 µg/mL	5 µg/mL (≈ 7.14 µM)	69%	–	CO[C@H]1CCN(C)[C@@H]1[C@H](C)Oc1cc(-n2ccc(C(=O)N[C@@H]3CCOC3)n2)nc(-c2noc3c2CCC[C@@]32CCCc3sc(N)c(C#N)c32)n1 [II-197]	8 nM	–	–	–
0.22	> 152 µg/mL	> 147 µg/mL	<24%	–	CC(C)[C@@H]1CN(c2cc(O[C@@H](C)[C@@H]3CCCN3C)nc(-c3noc4c3CCC[C@@]43CCCc4sc(N)c(C#N)c43)n2)CCN1 [II-166]	1180 nM	–	–	–
0.55	> 118 µg/mL	82 µg/mL (≈ 143 µM)	31%	–	C[C@H](Oc1cc(-c2cn(C)nn2)nc(-c2onc3c2CCC[C@@]32CCCc3sc(N)c(C#N)c32)n1)[C@@H]1CCCN1C [I-16]	77 nM	–	–	–
0.61	> 137 µg/mL	> 133 µg/mL	–	–	C[C@H](Oc1cc([C@H]2CCNC2)nc(-c2noc3c2CCC[C@@]32CCCc3sc(N)c(C#N)c32)n1)[C@@H]1CCCN1C [II-163]	274 nM	–	–	–
0.21	125 µg/mL (≈ 198 µM)	125 µg/mL (≈ 198 µM)	40%	–	COc1c(O[C@@H](C)[C@@H]2CCCN2C)nc(-c2noc3c2CCC[C@@]32CCCc3sc(N)c(C#N)c32)nc1-n1ccc(C(N)=O)n1 [II-159]	70 nM	–	–	–
0.04	3 µg/mL (≈ 4.92 µM)	< 1 µg/mL	<24%	–	C[C@H](Oc1cc(-c2cccc(C(N)=O)c2)nc(-c2noc3c2CCC[C@@]32CCCc3sc(N)c(C#N)c32)n1)[C@@H]1CCCN1C [II-133]	202 nM	–	–	–
0.03	4 µg/mL (≈ 5.65 µM)	5 µg/mL (≈ 7.06 µM)	<24%	–	C[C@H](Oc1cc(-n2cc3ccn(C[C@H]4CCOC4)c(=O)c3n2)nc(-c2noc3c2CCC[C@@]32CCCc3sc(N)c(C#N)c32)n1)[C@@H]1CCCN1C [II-204]	17 nM	–	–	–
–	86 µg/mL (≈ 159 µM)	10 µg/mL (≈ 18.5 µM)	–	–	C[C@H]1CNCCCN1c1cc(-n2ccnc2)nc(-c2noc3c2CCC[C@@]32CCCc3sc(N)c(C#N)c32)n1 [II-142]	6110 nM	–	–	–

SMILES	fraction unbound [1]	solubility at 24 h [2, 6]	solubility at 24 h [2, 7]	HLM QH [4]	efflux ratio at 90 min, 10 μM [5]	IC50 [3]	PPB 10% FCS (% fu) ([1]; fraction unbound)	solubility pH 4.5 ([2]; McIlvaine buffer pH 4.5)	solubility pH 6.8 ([2]; McIlvaine buffer pH 6.8)
C[C@H](Oc1cc(N2CC3COCC(C2)N3)nc(-c2noc3c2CCC[C@@]32CCCc3sc(N)c(C#N)c32)n1)[C@@H]1CCCN1C [II-160]	0.53	–	–	31%	–	821 nM	–	–	–
C[C@H](Oc1cc(-n2ccc(C(=O)N[C@H]3CCOC3)n2)nc(-c2noc3c2CCC[C@@]32CCCc3sc(N)c(C#N)c32)n1)[C@@H]1CCCN1C [II-193]	–	–	–	31%	–	10 nM	20 % fu	15 μg/ml	<1 μg/ml
